Consider six compounds from the supplement of paper PMC12698765.

Counter-ions that a name gives are not always drawn. ± gives the standard deviation of the averaged measurements.

Test [1] relates to 409B2 hiPSC (iCRISPR Cas9, FRMD7 editing). As to the kind of experiment: NHEJ-attributed indel frequency relative to solvent control (fold (ratio to mock)); higher = more NHEJ outcomes. How it is done:
(§1)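 Subset screen of 55 drugs tested at 5 concentrations around the effective screening dose, in 409B2 iCRISPR Cas9 hiPSCs editing FRMD7 with a ssDNA donor. Drugs were applied for 24 h. Viability was read by resazurin and editing outcomes by amplicon sequencing (HDR, NHEJ <2 bp microhomology, MMEJ ≥2 bp microhomology). Values are relative to solvent mock controls; two biological replicates.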

Test [2] shares this test system. The experiment in a line: MMEJ-attributed deletion frequency relative to solvent control (fold (ratio to mock)); higher = more MMEJ outcomes. As for the experimental part: as §1
The test system is the same in test [3]. The experiment in a line: cell survival relative to solvent control (fold (ratio to mock)); higher = more surviving cells. How it is done:
as §1

For test [4] the test system is unchanged. The experiment in a line: HDR (precise edit) frequency relative to solvent control (fold (ratio to mock)); higher = more homology-directed repair outcomes. As for the experimental part: as §1

Consider `C[C@@H]1O[C@@H](O[C@H]2C[C@@H](O)[C@]3(CO)[C@H]4[C@H](O)C[C@]5(C)[C@@H](C6=CC(=O)OC6)CC[C@]5(O)[C@@H]4CC[C@]3(O)C2)[C@H](O)[C@H](O)[C@H]1O` [Ouabain Octahydrate] (in H2O), for which the NHEJ-attributed indel frequency is 0.523 ± 0.026 in test [1] (2000 nM); 0.539 ± 0.1 in test [1] (5000 nM); 0.435 ± 0.13 in test [1] (10000 nM); 0.392 ± 0.093 in test [1] (20000 nM); 0.736 ± 0.38 in test [1] (50000 nM). In addition, the MMEJ-attributed deletion frequency in test [2] (2000 nM) was determined as 3.06 ± 0.43; in test [2] (5000 nM), 2.82 ± 1.1; in test [2] (10000 nM), 2.58 ± 0.43; in test [2] (20000 nM) it was 2.31 ± 0.4; in test [2] (50000 nM), 1.87 ± 1.1. In addition, the cell survival is 0.0512 in test [3] (2000 nM); 0.0777 in test [3] (5000 nM); 0.0589 in test [3] (10000 nM); 0.0655 in test [3] (20000 nM); 0.585 in test [3] (50000 nM). Also, the HDR amounted to 0.0693 ± 0.021 in test [4] (2000 nM); 0.0683 ± 0.03 in test [4] (5000 nM); 0.0814 ± 0.045 in test [4] (10000 nM); 0.068 ± 0.013 in test [4] (20000 nM); 0.505 ± 0.64 in test [4] (50000 nM).

As for `CO[C@H]1O[C@@H]2O[C@@]3(C)CC[C@H]4[C@H](C)CC[C@@H]([C@H]1C)[C@@]24OO3` [Artemether (SM-224)] (in DMSO), the NHEJ-attributed indel frequency in test [1] (200 nM) was found to be 0.983 ± 0.012; in test [1] (500 nM) it was 0.976 ± 0.022; in test [1] (1000 nM), 0.958 ± 0.011; in test [1] (2000 nM), 1 ± 0.024; in test [1] (5000 nM), 1.02 ± 0.037. The MMEJ-attributed deletion frequency was 0.853 ± 0.13 in test [2] (200 nM); 0.935 ± 0.072 in test [2] (500 nM); 0.804 ± 0.037 in test [2] (1000 nM); 0.907 ± 0.14 in test [2] (2000 nM); 0.946 ± 0.026 in test [2] (5000 nM). Further, the cell survival in test [3] (200 nM) was 0.947; in test [3] (500 nM), 1.23; in test [3] (1000 nM), 0.644; in test [3] (2000 nM), 1.09; in test [3] (5000 nM) it was 1.03. For the same compound, the HDR stood at 1.06 ± 0.036 in test [4] (200 nM); 1.13 ± 0.018 in test [4] (500 nM); 1.123 ± 0.0055 in test [4] (1000 nM); 1.09 ± 0.11 in test [4] (2000 nM); 1.17 ± 0.15 in test [4] (5000 nM).

Regarding `CCCCCCCCCCCCCC(=O)O` [Myristic Acid] (in DMSO), the NHEJ-attributed indel frequency is 0.9964 ± 0.0076 in test [1] (20 nM); 1.0053 ± 2.8e-05 in test [1] (50 nM); 1.016 ± 0.003 in test [1] (100 nM); 0.981 ± 0.024 in test [1] (200 nM); 0.967 ± 0.0099 in test [1] (500 nM). The MMEJ-attributed deletion frequency in test [2] (20 nM) was found to be 0.977 ± 0.13; in test [2] (50 nM) it was 0.921 ± 0.13; in test [2] (100 nM) it was 1.02 ± 0.2; in test [2] (200 nM) it was 1.1 ± 0.051; in test [2] (500 nM) it was 1.03 ± 0.099. For the same compound, the cell survival in test [3] (20 nM) amounted to 1.01; in test [3] (50 nM), 1.23; in test [3] (100 nM) it was 1.07; in test [3] (200 nM) it was 1.25; in test [3] (500 nM), 1.49. Besides, the HDR in test [4] (20 nM) was found to be 1.04 ± 0.025; in test [4] (50 nM), 1.03 ± 0.072; in test [4] (100 nM) it was 1.034 ± 0.01; in test [4] (200 nM), 1.07 ± 0.019; in test [4] (500 nM), 1.1 ± 0.064.

For the compound `O[C@@H]1[C@H](O)[C@H](O)CO[C@H]1O` [D-Ribose] (in DMSO), the NHEJ-attributed indel frequency is 0.9958 ± 0.0022 in test [1] (200 nM); 0.999 ± 0.01 in test [1] (500 nM); 0.979 ± 0.013 in test [1] (1000 nM); 1 ± 0.012 in test [1] (2000 nM); 0.9861 ± 0.0075 in test [1] (5000 nM). Also, the MMEJ-attributed deletion frequency came out at 0.939 ± 0.061 in test [2] (200 nM); 1.02 ± 0.1 in test [2] (500 nM); 0.965 ± 0.026 in test [2] (1000 nM); 1.012 ± 0.0071 in test [2] (2000 nM); 1.02 ± 0.16 in test [2] (5000 nM). Further, the cell survival was 1.06 in test [3] (200 nM); 1.16 in test [3] (500 nM); 1.06 in test [3] (1000 nM); 1.1 in test [3] (2000 nM); 1.04 in test [3] (5000 nM). For the same compound, the HDR worked out at 1.13 ± 0.04 in test [4] (200 nM); 1.01 ± 0.06 in test [4] (500 nM); 1.13 ± 0.075 in test [4] (1000 nM); 1.05 ± 0.025 in test [4] (2000 nM); 1.06 ± 0.05 in test [4] (5000 nM).

Regarding `CCN1CCN(Cc2ccc(Nc3ncc(F)c(-c4cc(F)c5nc(C)n(C(C)C)c5c4)n3)nc2)CC1` (in EtOH), the NHEJ-attributed indel frequency came to 0.504 ± 0.61 in test [1] (2000 nM); 0.11 ± 0.075 in test [1] (5000 nM); 0.157 ± 0.018 in test [1] (10000 nM); 0.0938 ± 0.058 in test [1] (20000 nM); 0.0987 ± 0.029 in test [1] (50000 nM). In addition, the MMEJ-attributed deletion frequency in test [2] (2000 nM) was found to be 0.565 ± 0.58; in test [2] (5000 nM), 0.159 ± 0.15; in test [2] (10000 nM), 0.229 ± 0.044; in test [2] (20000 nM), 0.109 ± 0.062; in test [2] (50000 nM), 0.0743 ± 0.0014. In addition, the cell survival in test [3] (2000 nM) is 0.514; in test [3] (5000 nM) it was -0.00651; in test [3] (10000 nM) it was -0.00445; in test [3] (20000 nM), -0.00662; in test [3] (50000 nM) it was -0.00233. Moreover, the HDR in test [4] (2000 nM) turned out to be 0.589 ± 0.76; in test [4] (5000 nM) it was 0.0594 ± 0.017; in test [4] (10000 nM), 0.0558 ± 0.0014; in test [4] (20000 nM) it was 0.0719 ± 0.015; in test [4] (50000 nM) it was 0.0788 ± 0.0049.

`CN(C)C(=O)C(CCN1CCC(O)(c2ccc(Cl)cc2)CC1)(c1ccccc1)c1ccccc1` [Loperamide HCl] (in DMSO): the NHEJ-attributed indel frequency in test [1] (2000 nM) is 0.923 ± 0.077; in test [1] (5000 nM) it was 0.9735 ± 0.0074; in test [1] (10000 nM), 0.928 ± 0.06; in test [1] (20000 nM), 0.324 ± 0.053; in test [1] (50000 nM) it was 0.186 ± 0.085. In addition, the MMEJ-attributed deletion frequency in test [2] (2000 nM) is 1.31 ± 0.23; in test [2] (5000 nM) it was 1.1 ± 0.094; in test [2] (10000 nM), 0.998 ± 0.032; in test [2] (20000 nM) it was 0.465 ± 0.16; in test [2] (50000 nM) it was 0.224 ± 0.07. For the same compound, the cell survival is 0.928 in test [3] (2000 nM); 1.24 in test [3] (5000 nM); 0.607 in test [3] (10000 nM); -0.00906 in test [3] (20000 nM); -0.00864 in test [3] (50000 nM). For the same compound, the HDR in test [4] (2000 nM) was 0.9969 ± 0.0053; in test [4] (5000 nM), 1.01 ± 0.044; in test [4] (10000 nM), 0.873 ± 0.035; in test [4] (20000 nM), 0.136 ± 0.067; in test [4] (50000 nM), 0.138 ± 0.11.
